ChEMBL document CHEMBL5518181, “Studies of antibacterial activity (in vitro and in vivo) and mode of action for des-acyl tridecaptins (DATs)” (Eur J Med Chem, 2024)
In brackets after ≈: the same amount, converted by molar mass. Activity calls are given as the source filed them. The calls are words filed in the database; no cut-off is given here.

Legend:
Staphylococcus aureus [1] = experiment: Antibacterial activity against wild type Staphylococcus aureus USA300 assessed as inhibition of bacterial growth incubated for 18 hrs; format: functional; conditions: read-out: MIC100
Enterobacter cloacae = experiment: Antibacterial activity against Enterobacter cloacae ATCC 23355 assessed as inhibition of bacterial growth incubated for 18 hrs; format: functional; conditions: read-out: MIC100
Lipopolysaccharide (LPS) = experiment: Binding affinity to Pseudomonas aeruginosa LPS assessed as dissociation constant by ITC analysis; format: subcellular
[2] = Drug uptake in Escherichia coli ATCC 25922 at 10 uM incubated for 10 mins by LC-MS/MS analysis; format: ADME
[3] = Aqueous solubility of compound at pH 4.6; format: physicochemical
Klebsiella aerogenes = experiment: Antibacterial activity against Enterobacter aerogenes ATCC 13048 assessed as inhibition of bacterial growth incubated for 18 hrs; format: functional; conditions: read-out: MIC100
Klebsiella pneumoniae [4] = experiment: Antibacterial activity against Klebsiella pneumoniae ATCC 43816 assessed as inhibition of bacterial growth incubated for 18 hrs; format: functional; conditions: read-out: MIC100
Cell membrane [5] = experiment: Induction of membrane permeabilization in Klebsiella pneumoniae ATCC 13883 at 64 ug/ml measured after 2 hrs by Sytox Green labelling based microscopic analysis; format: cell membranes; conditions: dose 64.0 µg/ml
[6] = Drug uptake in Pseudomonas aeruginosa PAO1 whole cells at 10 uM incubated for 10 mins by LC-MS/MS analysis; format: ADME
Klebsiella pneumoniae [7] = experiment: Antibacterial activity against wild-type Klebsiella pneumoniae ATCC 13883 assessed as inhibition of bacterial growth incubated for 18 hrs; format: functional; conditions: read-out: MIC100
Cell membrane [8] = experiment: Induction of membrane permeabilization in Escherichia coli ATCC 25922 at 64 ug/ml measured after 30 mins by Sytox Green labelling based microscopic analysis; format: cell membranes; conditions: dose 64.0 µg/ml
Citrobacter freundii = experiment: Antibacterial activity against Citrobacter freundii ATCC 8090 assessed as inhibition of bacterial growth incubated for 18 hrs; format: functional; conditions: read-out: MIC100
Escherichia coli [9] = experiment: Antibacterial activity against Escherichia coli ATCC 25922 assessed as inhibition of bacterial growth incubated for 18 hrs in presence of 5 mM KCl; format: functional, organism-based
Klebsiella pneumoniae [10] = experiment: Antibacterial activity against Klebsiella pneumoniae ATCC 13883 assessed as inhibition of bacterial growth incubated for 18 hrs in presence of 150 mM NaCl; format: functional, organism-based
Klebsiella pneumoniae [11] = experiment: Antibacterial activity against Klebsiella pneumoniae ATCC 13883 assessed as inhibition of bacterial growth incubated for 18 hrs in presence of 5 mM KCl; format: functional, organism-based
Cell membrane [12] = experiment: Induction of membrane permeabilization in Escherichia coli ATCC 25922 at 64 ug/ml measured immediately by Sytox Green labelling based microscopic analysis; format: cell membranes; conditions: dose 64.0 µg/ml
Klebsiella pneumoniae [13] = experiment: Antibacterial activity against Klebsiella pneumoniae ATCC 13883 assessed as inhibition of bacterial growth incubated for 18 hrs in presence of 25 mM bicarbonate; format: functional, organism-based
Klebsiella pneumoniae [14] = experiment: Antibacterial activity against wild-type Klebsiella pneumoniae ATCC 13883 assessed as inhibition of bacterial growth incubated for 18 hrs in presence of 50% heat inactivated human serum; format: functional; conditions: read-out: MIC100
[15] = Clearance in rat microsomes; format: ADME, Microsome
Escherichia coli [16] = experiment: Antibacterial activity against wild-type Escherichia coli ATCC 25922 assessed as inhibition of bacterial growth incubated for 18 hrs in presence of 50% heat inactivated human serum; format: functional; conditions: read-out: MIC100
Staphylococcus aureus [17] = experiment: Antibacterial activity against […] assessed as inhibition of bacterial growth incubated for 18 hrs; format: functional; conditions: ATCC 29213, read-out: MIC100
Cell membrane [18] = experiment: Induction of membrane permeabilization in Escherichia coli ATCC 25922 at 64 ug/ml measured after 2 hrs by Sytox Green labelling based microscopic analysis; format: cell membranes; conditions: dose 64.0 µg/ml
Pseudomonas aeruginosa [19] = experiment: Antibacterial activity against wild-type Pseudomonas aeruginosa PAO1 assessed as inhibition of bacterial growth incubated for 24 hrs; format: functional; conditions: read-out: MIC100
[20] = Drug uptake in Acinetobacter baumannii ATCC 19606 whole cells at 10 uM incubated for 10 mins by LC-MS/MS analysis; format: ADME
Salmonella typhimurium = experiment: Antibacterial activity against Salmonella typhimurium ATCC 13311 assessed as inhibition of bacterial growth incubated for 18 hrs; format: functional, Salmonella enterica subsp. enterica serovar Typhimurium; conditions: Salmonella enterica, read-out: MIC100
Proteus mirabilis = experiment: Antibacterial activity against Proteus mirabilis ATCC 25933 assessed as inhibition of bacterial growth incubated for 18 hrs; format: functional; conditions: read-out: MIC100
[21] = Hydrophobicity of compound assessed as %MeCN at peak elution by RP-HPLC analysis; format: physicochemical
Pseudomonas aeruginosa [22] = experiment: Antibacterial activity against efflux-deficient Pseudomonas aeruginosa PAO750 assessed as inhibition of bacterial growth incubated for 18 hrs; format: functional; conditions: read-out: MIC100
Escherichia coli [23] = experiment: Antibacterial activity against Escherichia coli ATCC 25922 assessed as inhibition of bacterial growth incubated for 18 hrs in presence of 150 mM NaCl; format: functional, organism-based

In the case of `CC[C@H](C)[C@@H](NC(=O)[C@@H](NC(=O)[C@H](CCC(=O)O)NC(=O)[C@H](Cc1ccccc1)NC(=O)[C@@H](CCN)NC(=O)[C@H](CCN)NC(=O)[C@H](CO)NC(=O)[C@@H](Cc1c[nH]c2ccccc12)NC(=O)[C@@H](CO)NC(=O)CNC(=O)[C@@H](CCN)NC(=O)[C@H](N)C(C)C)C(C)C)C(=O)N[C@@H](C)C(=O)O`, the MIC (Staphylococcus aureus [1]) is reported as > 32 µg/mL, the MIC (Enterobacter cloacae) is reported as > 32 µg/mL and the Kd (Lipopolysaccharide (LPS)) is reported as 13.5 µM. The Drug uptake [2] was “Active”, the solubility [3] was > 1000 µg/mL and the MIC (Klebsiella aerogenes) was > 32 µg/mL. The MIC (Klebsiella pneumoniae [4]) was 8 µg/mL (≈ 5.74 µM), the Activity (Cell membrane [5]) was “Active” and the Drug uptake [6] was ~ 60 ng. For the same molecule, the MIC (Klebsiella pneumoniae [7]) was 32 µg/mL (≈ 22.9 µM), the Activity (Cell membrane [8]) was “inactive” and the MIC (Citrobacter freundii) was 32 µg/mL (≈ 22.9 µM). The Activity (Escherichia coli [9]) was “Active”, the Activity (Klebsiella pneumoniae [10]) was “Active” and the Activity (Klebsiella pneumoniae [11]) was “Active”. The Activity (Cell membrane [12]) was “inactive”, the Activity (Klebsiella pneumoniae [13]) was “Active” and the MIC (Klebsiella pneumoniae [14]) was 8 µg/mL. For the same molecule, the microsomal CLint [15] was 108 µL/min/mg, the MIC (Escherichia coli [16]) was 32 µg/mL and the MIC (Staphylococcus aureus [17]) was 32 µg/mL (≈ 22.9 µM). For the same molecule, the Activity (Cell membrane [18]) was “Active”, the MIC (Pseudomonas aeruginosa [19]) was > 64 µg/mL and the Drug uptake [20] was ~ 60 ng. The MIC (Salmonella typhimurium) was > 32 µg/mL, the MIC (Proteus mirabilis) was > 32 µg/mL and the “MeCN percentage at peak elution” value [21] was 42%. For the same molecule, the MIC (Pseudomonas aeruginosa [22]) was > 32 µg/mL and the Activity (Escherichia coli [23]) was “Active”.
